Measured values published in US20090099127A1, “Nematicidal Compositions and Methods” (priority 2005, published 2009).

How the values were obtained:
Thrips [1] = experiment: Thrips damage rating on cotton plants (Delta and Pineland variety 555), Example 1; type: in vivo; details: cotton variety 555, 1 = no damage, 5 = plant completely damaged (dead)
Description: This example illustrates the effect of a composition of the invention on cotton plant damage and plant height for cotton plants planted in soil known to have nematode (Rotylenchulus reniformis) pressure. The cotton plants utilized were commercially available Delta and Pineland variety 555.
The compositions described in Table 1 below were applied either as a seed treatment (Samples B, C, and E-G) or in furrow (Sample D) at the respective application rates set forth in Table 1.

Thrips [2] = experiment: Thrips damage rating on cotton plants (Fibermax cotton variety 960), Example 2; type: in vivo; details: 1 = no damage, 5 = dead
Description: This example illustrates the effect of the compositions from Table 1 for cotton plants planted in soil known to have nematode (Rotylenchulus reniformis) pressure. FIGS. 4 and 5 illustrate the Thrips damage ratings at three and four weeks, respectively, after planting. FIG. 6 illustrates the plant height seven weeks after planting. The cotton plants utilized were commercially available Fibermax cotton variety 960.

Row | SMILES | Thrips Damage Rating (Thrips [1]; 3 weeks after planting) | Thrips Damage Rating (Thrips [1]; 4 weeks after planting) | Thrips Damage Rating (Thrips [2]; 3 weeks after planting) | Thrips Damage Rating (Thrips [2]; 4 weeks after planting)
1 | O=[N+]([O-])NC1=NCCN1Cc1ccc(Cl)nc1 [B, imidacloprid] | 2 | 2.3 | 2.63 | 2.5
2 | O=[N+]([O-])NC1=NCCN1Cc1ccc(Cl)nc1 [E, imidacloprid] | 2.25 | 2.4 | 2.88 | 3
3 | CNC(=O)O/N=C/C(C)(C)SC [Sample D, aldicarb] | 1.13 | 1.5 | 2.5 | 2.1
